Data published in article PMC9312876, “Therapeutic Potential of a Novel Vitamin D3 Oxime Analogue, VD1-6, with CYP24A1 Enzyme Inhibitory Activity and Negligible Vitamin D Receptor Binding” (Biomolecules, 2022).

Tests used:
[1] = target: T1, vitamin D receptor (VDR) (Homo sapiens, UniProt P11473); assay: fluorescence polarization competition with Fluormone VDR Red tracer (PolarScreen); format: binding
T1 construct: full-length
T1 sequence (P11473 1-427): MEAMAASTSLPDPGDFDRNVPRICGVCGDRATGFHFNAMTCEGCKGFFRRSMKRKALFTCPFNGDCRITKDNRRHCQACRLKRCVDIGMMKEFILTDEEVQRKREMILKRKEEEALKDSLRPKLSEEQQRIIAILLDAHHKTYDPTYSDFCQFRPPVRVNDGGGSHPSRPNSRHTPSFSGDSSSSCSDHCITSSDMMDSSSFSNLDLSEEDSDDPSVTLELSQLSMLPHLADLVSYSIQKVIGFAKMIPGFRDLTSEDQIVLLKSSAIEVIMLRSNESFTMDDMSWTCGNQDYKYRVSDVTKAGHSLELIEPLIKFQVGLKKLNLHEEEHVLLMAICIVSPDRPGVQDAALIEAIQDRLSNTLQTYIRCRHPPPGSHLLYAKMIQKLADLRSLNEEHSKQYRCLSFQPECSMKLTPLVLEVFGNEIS

[2] = target: T1, vitamin D receptor (VDR); assay: fluorescence polarization competition with Fluormone VDR Red tracer (PolarScreen); binding only evident above […]

IC50 [1] [nM]	IC50 [2] [nM]	SMILES
56.2		C=C1CC[C@H](O)C/C1=C/C=C1\CCC[C@]2(C)[C@@H]([C@H](C)CCCC(C)(C)O)CC[C@@H]12 [25(OH)D3]
	438	C=C1/C(=C\C=C2/CCC[C@]3(C)[C@@H]([C@H](C)CCC(=NOC)C(C)(C)C)CC[C@@H]23)C[C@@H](O)C[C@@H]1O [VD1-6]
